Source: ChEMBL document CHEMBL1153552, “Comparative in vitro pharmacodynamics of caspofungin, micafungin, and anidulafungin against germinated and nongerminated Aspergillus conidia” (2008)
Activity calls are given as the source filed them. The calls are words filed in the database; no cut-off is given here. Numbered stars: 1 amine (or outer) side, 2 acyl side, 3 side chain; on linkers, the order of the positions; unused ones are H or OH. Bridge positions count the residues as written; N and C are the ends. Square brackets hold non-standard residues; d marks the D form. Peptide text beside a SMILES is read from it. * marks the point of attachment. pTerphenylCO(4''-OnC5H11) = CCCCCOc1ccc(-c2ccc(-c3ccc(C(=O)*)cc3)cc2)cc1; Orn(4R-OH,5R-OH) = O=C([C@H](C[C@@H](O)[C@@H](O)N[*:3])N[*:1])[*:2]; hTyr(3S-OH,4S-OH) = N[C@H](C(=O)O)[C@H](O)[C@@H](O)c1ccc(O)cc1; Pro(3S-OH,4S-Me) = C[C@H]1CN[C@H](C(=O)O)[C@H]1O; Hyp = O=C(O)[C@@H]1C[C@@H](O)CN1

How the values were obtained:
Aspergillus terreus [1] = assay: Effect on Aspergillus terreus metabolic activity assessed number of twofold drug dilutions required for germinated fungal metabolic activity to nongerminated fungal metabolic activity; format: functional
Aspergillus fumigatus [2] = assay: Effect on germinated Aspergillus fumigatus metabolic activity assessed as drug concentration at which fungal metabolic activity occurs after 2 hrs by XTT assay; format: functional
Aspergillus flavus [3] = assay: Increase in metabolic activity of germinated Aspergillus flavus assessed as elongation of short, stubby aberrant hyphae at 2 ug/mL after 48 hrs by XTT assay; format: functional, organism-based
Aspergillus fumigatus [4] = assay: Antifungal activity against germinated Aspergillus fumigatus assessed as absence of visual fungal growth at 64 ug/mL; format: functional, organism-based
Aspergillus flavus [5] = assay: Antifungal activity against nongerminated Aspergillus flavus assessed as lowest drug concentration that produced short, stubby and highly branched hyphae after 48 hrs by microscopic analysis; format: functional; conditions: read-out: MEC
Aspergillus flavus [6] = assay: Induction of maximal metabolic inhibition in nongerminated Aspergillus flavus assessed as minimal metabolic activity Ymin after 2 hrs by XTT assay; format: functional; design: scale not given: the % may be the effect or the level left
Aspergillus terreus [7] = assay: Antifungal activity against germinated Aspergillus terreus assessed as absence of visual fungal growth at 128 ug/mL; format: functional, organism-based
Aspergillus fumigatus [8] = assay: Increase in metabolic activity of nongerminated Aspergillus fumigatus elongation of short, stubby aberrant hyphae at 16 ug/mL after 48 hrs by XTT assay; format: functional, organism-based
Aspergillus fumigatus [9] = assay: Effect on nongerminated Aspergillus fumigatus metabolic activity assessed as drug concentration at which fungal metabolic activity occurs after 2 hrs by XTT assay; format: functional
Aspergillus flavus [10] = assay: Antifungal activity against germinated Aspergillus flavus assessed as lowest drug concentration that produced short, stubby and highly branched hyphae after 48 hrs by microscopic analysis; format: functional; conditions: read-out: MEC
Aspergillus terreus [11] = assay: Increase in metabolic activity of germinated Aspergillus terreus assessed as formation of short, stubby aberrant hyphae at 0.03 ug/mL after 48 hrs by XTT assay; format: functional, organism-based
Aspergillus fumigatus [12] = assay: Antifungal activity against germinated Aspergillus fumigatus assessed as lowest drug concentration that produced short, stubby and highly branched hyphae after 48 hrs by microscopic analysis; format: functional; conditions: read-out: MEC
Aspergillus terreus [13] = assay: Effect on nongerminated Aspergillus terreus metabolic activity assessed as drug concentration at which fungal metabolic activity occurs after 2 hrs by XTT assay; format: functional
Aspergillus terreus [14] = assay: Antifungal activity against germinated Aspergillus terreus assessed as absence of visual fungal growth at 64 ug/mL; format: functional, organism-based
Aspergillus terreus [15] = assay: Antifungal activity against germinated Aspergillus terreus assessed as lowest drug concentration that produced short, stubby and highly branched hyphae after 48 hrs by microscopic analysis; format: functional; conditions: read-out: MEC
Aspergillus flavus [16] = assay: Increase in metabolic activity of nongerminated Aspergillus flavus assessed as elongation of short, stubby aberrant hyphae at 16 ug/mL after 48 hrs by XTT assay; format: functional, organism-based
Aspergillus terreus [17] = assay: Ratio of log2 of MEC for germinated Aspergillus terreus to log2 of MEC for nongerminated Aspergillus terreus; format: functional
Aspergillus terreus [18] = assay: Induction of maximal metabolic inhibition in germinated Aspergillus terreus assessed as minimal metabolic activity Ymin after 2 hrs by XTT assay; format: functional; design: scale not given: the % may be the effect or the level left
Aspergillus flavus [19] = assay: Antifungal activity against germinated Aspergillus flavus assessed as absence of visual fungal growth at 64 ug/mL; format: functional, organism-based
Aspergillus flavus [20] = assay: Effect on Aspergillus flavus metabolic activity assessed number of twofold drug dilutions required for germinated fungal metabolic activity to nongerminated fungal metabolic activity; format: functional
Aspergillus flavus [21] = assay: Antifungal activity against nongerminated Aspergillus flavus assessed as absence of visual fungal growth at 64 ug/mL; format: functional, organism-based
Aspergillus flavus [22] = assay: Increase in metabolic activity of germinated Aspergillus flavus assessed as formation of short, stubby aberrant hyphae at 0.03 ug/mL after 48 hrs by XTT assay; format: functional, organism-based
Aspergillus terreus [23] = assay: Effect on germinated Aspergillus terreus metabolic activity assessed as drug concentration at which fungal metabolic activity occurs after 2 hrs by XTT assay; format: functional
Aspergillus flavus [24] = assay: Increase in metabolic activity of nongerminated Aspergillus flavus assessed as formation of short, stubby aberrant hyphae at 0.03 ug/mL after 48 hrs by XTT assay; format: functional, organism-based
Aspergillus flavus [25] = assay: Increase in metabolic activity of nongerminated Aspergillus flavus assessed as elongation of short, stubby aberrant hyphae at 2 ug/mL after 48 hrs by XTT assay; format: functional, organism-based
Aspergillus fumigatus [26] = assay: Effect on Aspergillus fumigatus metabolic activity assessed number of twofold drug dilutions required for germinated fungal metabolic activity to nongerminated fungal metabolic activity; format: functional
Aspergillus flavus [27] = assay: Antifungal activity against germinated Aspergillus flavus assessed as absence of visual fungal growth at 128 ug/mL; format: functional, organism-based
Aspergillus terreus [28] = assay: Induction of maximal metabolic inhibition in nongerminated Aspergillus terreus assessed as minimal metabolic activity Ymin after 2 hrs by XTT assay; format: functional; design: scale not given: the % may be the effect or the level left
Aspergillus terreus [29] = assay: Antifungal activity against nongerminated Aspergillus terreus assessed as absence of visual fungal growth at 64 ug/mL; format: functional, organism-based
Aspergillus fumigatus [30] = assay: Antifungal activity against germinated Aspergillus fumigatus assessed as absence of visual fungal growth at 128 ug/mL; format: functional, organism-based
Aspergillus fumigatus [31] = assay: Antifungal activity against nongerminated Aspergillus fumigatus assessed as absence of visual fungal growth at 128 ug/mL; format: functional, organism-based
Aspergillus terreus [32] = assay: Increase in metabolic activity of nongerminated Aspergillus terreus assessed as elongation of short, stubby aberrant hyphae at 2 ug/mL after 48 hrs by XTT assay; format: functional, organism-based
Aspergillus fumigatus [33] = assay: Antifungal activity against nongerminated Aspergillus fumigatus assessed as absence of visual fungal growth at 64 ug/mL; format: functional, organism-based
Aspergillus flavus [34] = assay: Effect on germinated Aspergillus flavus metabolic activity assessed as drug concentration at which fungal metabolic activity occurs after 2 hrs by XTT assay; format: functional
Aspergillus fumigatus [35] = assay: Ratio of log2 of MEC for germinated Aspergillus fumigatus to log2 of MEC for nongerminated Aspergillus fumigatus; format: functional
Aspergillus terreus [36] = assay: Increase in metabolic activity of germinated Aspergillus terreus assessed as elongation of short, stubby aberrant hyphae at 16 ug/mL after 48 hrs by XTT assay; format: functional, organism-based
Aspergillus terreus [37] = assay: Antifungal activity against nongerminated Aspergillus terreus assessed as lowest drug concentration that produced short, stubby and highly branched hyphae after 48 hrs by microscopic analysis; format: functional; conditions: read-out: MEC
Aspergillus flavus [38] = assay: Increase in metabolic activity of germinated Aspergillus flavus assessed as elongation of short, stubby aberrant hyphae at 16 ug/mL after 48 hrs by XTT assay; format: functional, organism-based
Aspergillus flavus [39] = assay: Effect on nongerminated Aspergillus flavus metabolic activity assessed as drug concentration at which fungal metabolic activity occurs after 2 hrs by XTT assay; format: functional
Aspergillus terreus [40] = assay: Increase in metabolic activity of nongerminated Aspergillus terreus assessed as elongation of short, stubby aberrant hyphae at 16 ug/mL after 48 hrs by XTT assay; format: functional, organism-based
Aspergillus terreus [41] = assay: Antifungal activity against nongerminated Aspergillus terreus assessed as absence of visual fungal growth at 128 ug/mL; format: functional, organism-based
Aspergillus fumigatus [42] = assay: Increase in metabolic activity of nongerminated Aspergillus fumigatus assessed as elongation of short, stubby aberrant hyphae at 2 ug/mL after 48 hrs by XTT assay; format: functional, organism-based
Aspergillus terreus [43] = assay: Increase in metabolic activity of nongerminated Aspergillus terreus assessed as formation of short, stubby aberrant hyphae at 0.03 ug/mL after 48 hrs by XTT assay; format: functional, organism-based
Aspergillus fumigatus [44] = assay: Increase in metabolic activity of germinated Aspergillus fumigatus assessed as elongation of short, stubby aberrant hyphae at 16 ug/mL after 48 hrs by XTT assay; format: functional, organism-based
Aspergillus fumigatus [45] = assay: Increase in metabolic activity of nongerminated Aspergillus fumigatus assessed as formation of short, stubby aberrant hyphae at 0.03 ug/mL after 48 hrs by XTT assay; format: functional, organism-based
Aspergillus terreus [46] = assay: Increase in metabolic activity of germinated Aspergillus terreus assessed as elongation of short, stubby aberrant hyphae at 2 ug/mL after 48 hrs by XTT assay; format: functional, organism-based
Aspergillus fumigatus [47] = assay: Induction of maximal metabolic inhibition in germinated Aspergillus fumigatus assessed as minimal metabolic activity Ymin after 2 hrs by XTT assay; format: functional; design: scale not given: the % may be the effect or the level left
Aspergillus fumigatus [48] = assay: Antifungal activity against nongerminated Aspergillus fumigatus assessed as lowest drug concentration that produced short, stubby and highly branched hyphae after 48 hrs by microscopic analysis; format: functional; conditions: read-out: MEC
Aspergillus fumigatus [49] = assay: Induction of maximal metabolic inhibition in nongerminated Aspergillus fumigatus assessed as minimal metabolic activity Ymin after 2 hrs by XTT assay; format: functional; design: scale not given: the % may be the effect or the level left
Aspergillus flavus [50] = assay: Induction of maximal metabolic inhibition in germinated Aspergillus flavus assessed as minimal metabolic activity Ymin after 2 hrs by XTT assay; format: functional; design: scale not given: the % may be the effect or the level left
Aspergillus fumigatus [51] = assay: Increase in metabolic activity of germinated Aspergillus fumigatus assessed as formation of short, stubby aberrant hyphae at 0.03 ug/mL after 48 hrs by XTT assay; format: functional, organism-based
Aspergillus fumigatus [52] = assay: Increase in metabolic activity of germinated Aspergillus fumigatus assessed as elongation of short, stubby aberrant hyphae at 2 ug/mL after 48 hrs by XTT assay; format: functional, organism-based
Aspergillus flavus [53] = assay: Ratio of log2 of MEC for germinated Aspergillus flavus to log2 of MEC for nongerminated Aspergillus flavus; format: functional
Aspergillus flavus [54] = assay: Antifungal activity against nongerminated Aspergillus flavus assessed as absence of visual fungal growth at 128 ug/mL; format: functional, organism-based

`CCCCCOc1ccc(-c2ccc(-c3ccc(C(=O)N[C@H]4C[C@@H](O)[C@@H](O)NC(=O)[C@@H]5[C@@H](O)[C@@H](C)CN5C(=O)[C@H]([C@@H](C)O)NC(=O)[C@H]([C@H](O)[C@@H](O)c5ccc(O)cc5)NC(=O)[C@@H]5C[C@@H](O)CN5C(=O)[C@H]([C@@H](C)O)NC4=O)cc3)cc2)cc1` [ANIDULAFUNGIN] ({pTerphenylCO(4''-OnC5H11)}-[Orn(4R-OH,5R-OH)]T[Hyp][hTyr(3S-OH,4S-OH)]T[Pro(3S-OH,4S-Me)]; lactam 1-C) was tested, and the Ratio (Aspergillus terreus [1]) was 2.97, the EC5 (Aspergillus fumigatus [2]) was 0.11 µg/mL and the Activity (Aspergillus flavus [3]) was “Active”. For the same molecule, the Activity (Aspergillus fumigatus [4]) was “inactive”, the minimal effective concentration (Aspergillus flavus [5]) was 0.03 µg/mL and the Activity (Aspergillus flavus [6]) was 16%. The Activity (Aspergillus terreus [7]) was “inactive”, the Activity (Aspergillus fumigatus [8]) was “Active” and the EC5 (Aspergillus fumigatus [9]) was 0.03 µg/mL. The minimal effective concentration (Aspergillus flavus [10]) was 0.25 µg/mL, the Activity (Aspergillus terreus [11]) was “Active” and the minimal effective concentration (Aspergillus fumigatus [12]) was 0.12 µg/mL. For the same molecule, the EC5 (Aspergillus terreus [13]) was 0.01 µg/mL, the Activity (Aspergillus terreus [14]) was “inactive” and the minimal effective concentration (Aspergillus terreus [15]) was 0.25 µg/mL. The Activity (Aspergillus flavus [16]) was “Active”, the Ratio (Aspergillus terreus [17]) was 3 and the Activity (Aspergillus terreus [18]) was 44%. For the same molecule, the Activity (Aspergillus flavus [19]) was “inactive”, the Ratio (Aspergillus flavus [20]) was 2.96 and the Activity (Aspergillus flavus [21]) was “inactive”. The Activity (Aspergillus flavus [22]) was “Active”, the EC5 (Aspergillus terreus [23]) was 0.1 µg/mL and the Activity (Aspergillus flavus [24]) was “Active”. For the same molecule, the Activity (Aspergillus flavus [25]) was “Active”, the Ratio (Aspergillus fumigatus [26]) was 2.4 and the Activity (Aspergillus flavus [27]) was “inactive”. The Activity (Aspergillus terreus [28]) was 30%, the Activity (Aspergillus terreus [29]) was “inactive” and the Activity (Aspergillus fumigatus [30]) was “inactive”. For the same molecule, the Activity (Aspergillus fumigatus [31]) was “inactive”, the Activity (Aspergillus terreus [32]) was “Active” and the Activity (Aspergillus fumigatus [33]) was “inactive”. For the same molecule, the EC5 (Aspergillus flavus [34]) was 0.09 µg/mL, the Ratio (Aspergillus fumigatus [35]) was 2 and the Activity (Aspergillus terreus [36]) was “Active”. The minimal effective concentration (Aspergillus terreus [37]) was 0.03 µg/mL, the Activity (Aspergillus flavus [38]) was “Active” and the EC5 (Aspergillus flavus [39]) was 0.01 µg/mL. The Activity (Aspergillus terreus [40]) was “Active”, the Activity (Aspergillus terreus [41]) was “inactive” and the Activity (Aspergillus fumigatus [42]) was “Active”. For the same molecule, the Activity (Aspergillus terreus [43]) was “Active”, the Activity (Aspergillus fumigatus [44]) was “Active” and the Activity (Aspergillus fumigatus [45]) was “Active”. The Activity (Aspergillus terreus [46]) was “Active”, the Activity (Aspergillus fumigatus [47]) was 36% and the minimal effective concentration (Aspergillus fumigatus [48]) was 0.03 µg/mL. For the same molecule, the Activity (Aspergillus fumigatus [49]) was 26%, the Activity (Aspergillus flavus [50]) was 16% and the Activity (Aspergillus fumigatus [51]) was “Active”. The Activity (Aspergillus fumigatus [52]) was “Active”, the Ratio (Aspergillus flavus [53]) was 2.5 and the Activity (Aspergillus flavus [54]) was “inactive”.
